Experimental findings from patent publication US9212139B2, “Aryl substituted indoles and their use as blockers of sodium channels” (Purdue Pharma, L.P., priority 2010, dated 2015) are described below.

By Ki is commonly meant the dissociation constant of the complex between target and ligand, obtained from inhibition or displacement. Usually IC50 stands for the midpoint of a concentration-inhibition curve.

For one experiment, the target named is hNav1.7 (Homo sapiens (Human), UniProt Q15858). Description: Electrophysiology (EP) assay, whole-cell patch clamp. In kind it is cell-based. As to conditions: whole-cell patch clamp, hNav1.7 expressing HEK-293 cells; read-out: EP Nav1.7 Ki. As for the experimental part: Cells: The hNav1.7 expressing HEK-293 cells were plated on 35 mm culture dishes pre-coated with poly-D-lysine in standard DMEM culture media (Mediatech, Inc., Herndon, Va.) and incubated in a 5% CO2 incubator at 37° C. Cultured cells were used approximately 12-48 hours after plating.
Chain of hNav1.7 (Q15858 other isoform, or with tags, fused parts or gaps): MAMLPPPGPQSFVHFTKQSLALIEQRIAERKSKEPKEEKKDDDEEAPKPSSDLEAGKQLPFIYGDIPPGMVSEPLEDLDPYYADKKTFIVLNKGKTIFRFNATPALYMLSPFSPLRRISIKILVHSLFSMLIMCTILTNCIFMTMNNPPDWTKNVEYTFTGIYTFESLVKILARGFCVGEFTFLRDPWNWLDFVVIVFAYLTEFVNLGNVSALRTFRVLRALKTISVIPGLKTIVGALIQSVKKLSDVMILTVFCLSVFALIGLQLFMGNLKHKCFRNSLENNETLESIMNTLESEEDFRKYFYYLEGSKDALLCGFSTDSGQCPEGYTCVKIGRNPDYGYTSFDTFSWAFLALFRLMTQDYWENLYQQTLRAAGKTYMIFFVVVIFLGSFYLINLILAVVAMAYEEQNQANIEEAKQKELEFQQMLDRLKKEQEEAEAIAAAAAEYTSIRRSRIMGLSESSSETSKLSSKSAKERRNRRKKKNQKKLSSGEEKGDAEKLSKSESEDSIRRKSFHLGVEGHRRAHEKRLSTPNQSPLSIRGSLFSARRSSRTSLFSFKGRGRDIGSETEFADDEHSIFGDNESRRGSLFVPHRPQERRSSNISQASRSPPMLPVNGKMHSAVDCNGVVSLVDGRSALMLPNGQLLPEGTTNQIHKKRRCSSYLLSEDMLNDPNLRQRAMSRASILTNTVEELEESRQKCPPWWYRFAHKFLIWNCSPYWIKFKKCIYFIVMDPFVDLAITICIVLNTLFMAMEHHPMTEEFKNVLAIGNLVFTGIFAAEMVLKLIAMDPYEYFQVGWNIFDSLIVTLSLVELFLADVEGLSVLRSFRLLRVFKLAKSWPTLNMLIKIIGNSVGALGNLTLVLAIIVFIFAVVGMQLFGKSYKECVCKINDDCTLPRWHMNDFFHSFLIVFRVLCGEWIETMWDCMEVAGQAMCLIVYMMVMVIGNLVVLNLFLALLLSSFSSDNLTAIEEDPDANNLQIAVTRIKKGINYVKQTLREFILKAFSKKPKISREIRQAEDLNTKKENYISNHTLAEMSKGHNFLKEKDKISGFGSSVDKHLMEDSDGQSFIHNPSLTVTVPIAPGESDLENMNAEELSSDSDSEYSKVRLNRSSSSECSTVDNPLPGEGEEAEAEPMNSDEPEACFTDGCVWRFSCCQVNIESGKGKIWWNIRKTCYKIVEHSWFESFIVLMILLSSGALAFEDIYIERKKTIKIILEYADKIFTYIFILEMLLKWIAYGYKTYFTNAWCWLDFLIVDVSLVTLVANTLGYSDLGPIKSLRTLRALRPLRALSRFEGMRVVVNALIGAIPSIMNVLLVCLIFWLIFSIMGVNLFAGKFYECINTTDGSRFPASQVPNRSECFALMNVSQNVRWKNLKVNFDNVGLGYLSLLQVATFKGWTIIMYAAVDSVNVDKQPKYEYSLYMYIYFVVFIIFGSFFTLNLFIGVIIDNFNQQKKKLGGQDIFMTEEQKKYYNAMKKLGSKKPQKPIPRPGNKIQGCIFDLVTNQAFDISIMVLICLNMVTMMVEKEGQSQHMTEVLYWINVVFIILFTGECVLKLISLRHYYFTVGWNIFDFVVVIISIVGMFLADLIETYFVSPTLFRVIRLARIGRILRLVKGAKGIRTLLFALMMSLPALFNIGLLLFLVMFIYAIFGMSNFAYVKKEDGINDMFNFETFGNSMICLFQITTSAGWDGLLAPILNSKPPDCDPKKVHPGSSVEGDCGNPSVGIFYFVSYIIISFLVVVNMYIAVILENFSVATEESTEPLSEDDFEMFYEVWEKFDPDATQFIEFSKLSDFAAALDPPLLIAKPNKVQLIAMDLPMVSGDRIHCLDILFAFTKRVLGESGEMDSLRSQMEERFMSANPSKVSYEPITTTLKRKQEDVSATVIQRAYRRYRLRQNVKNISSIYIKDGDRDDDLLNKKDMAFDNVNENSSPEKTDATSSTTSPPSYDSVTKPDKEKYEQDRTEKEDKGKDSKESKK
Electrophysiology: On the day of experimentation, the 35 mm dish was placed on the stage of an inverted microscope equipped with a perfusion system that continuously perfuses the culture dish with fresh recording media. A gravity driven superfusion system was used to apply test solutions directly to the cell under evaluation. This system consists of an array of glass pipette glass connected to a motorized horizontal translator. The outlet of the shooter was positioned approximately 100 μm from the cell of interest.
Gigaseals were formed and the whole-cell configuration was established in voltage clamp mode, and membrane currents generated by hNav1.7 were recorded in gap-free mode. […] Signals were sampled at 50 kHz and low pass filtered at 3 kHz.
The voltage clamp protocol to examine hNav1.7 currents was as follows. First, the standard current-voltage relationship was tested by pulsing the cell from the holding voltage (Vh) of −120 mV by a series of 5 msec long square-shaped test pulses incrementing in +10 mV steps over the membrane voltage range of −90 mV to +60 mV at the pace of stimulation of 0.5 Hz. This procedure determines the voltage that elicits the maximal current (Vmax). […] This procedure determines the voltage of full inactivation (Vfull). Third, the cell was repeatedly stimulated with the following protocol, first in the absence of the test compound then in its presence. The protocol consisted of depolarizing the cell from the holding potential of −120 mV to the Vfull value for 4.5 seconds then repolarizing the cell to the holding potential for 10 ms before applying the test pulse to the Vmax for 5 ms. The amount of inhibition produced by the test compound was determined by comparing the current amplitude elicited by the test pulse in the absence and presence of the compound.
Vehicle solution used to establish base line was also contacting 0.3% DMSO.
Data analysis: Data was analyzed off-line using Clampfit software (pClamp, v. 8; Axon Instruments) and graphed using GraphPad Prizm (v. 4.0) software.
In general terms: The patch-clamp technique gives a direct electrical read-out from membranes.

The subject of experiment [1] is spinal nerve ligation (SNL; Chung model of neuropathic pain). Description: Mechanical hyperalgesia (paw withdrawal threshold) in the Chung spinal nerve ligation model. The experiment is classed as in vivo. As to conditions: rats, intraperitoneal (i.p.) administration, from 1 to 3 hours. The protocol: Test Animals: Each experiment uses rats weighing between 200-260 g at the start of the experiment. The rats are group-housed and have free access to food and water at all times, except prior to oral administration of a test compound when food is removed for 16 hours before dosing. A control group acts as a comparison to rats treated with a compound of Formulae I-XX. The control group is administered the carrier as used for the test compound. The volume of carrier administered to the control group is the same as the volume of carrier and test compound administered to the test group.
In the Chung model, the spinal nerve ligation model of neuropathic pain was used to produce mechanical hyperalgesia, thermal hyperalgesia and tactile allodynia in rats. […] The animals were assessed for response to noxious mechanical stimuli by determining PWT, as described below, prior to surgery (baseline), then immediately prior to and 1, 3, and 5 hours after being administered a compound of Formulae I-XX for the left rear paw of the animal. The animals can also be assessed for response to noxious thermal stimuli or for tactile allodynia, as described below. […]
Mechanical Hyperalgesia: Sensitivity to noxious mechanical stimuli can be measured in animals using the paw pressure test to assess mechanical hyperalgesia. […] PWT is determined once for each rat at each time point. […]

Another experiment has as its target human Nav1.7 (Homo sapiens (Human), UniProt Q15858). In words: FLIPR or FLIPR TETRA sodium dye assay with KCl and test article pre-incubation. As to conditions: sodium dye assay with KCl; recombinant human Nav1.7 in HEK293 cells; value ± SEM. The experiment is classed as cell-based. The source says:
For dominant selection of the Nav1.7-expressing clones, the expression plasmid co-expressed the neomycin resistance gene. […] Recombinant beta and gamma subunits were not introduced into this cell line. Additional cell lines expressing recombinant Nav1.7 cloned from other species can also be used, alone or in combination with various beta subunits, gamma subunits or chaperones.
Cell maintenance: Unless otherwise noted, cell culture reagents were purchased from Mediatech of Herndon, Va. The recombinant Nav1.7/HEK293 cells were routinely cultured in growth medium consisting of Dulbecco's […] containing 10% fetal bovine serum (FBS, Hyclone, Thermo Fisher Scientific, Logan, Utah), 100 U/mL penicillin, […], 2-4 mM L-glutamine, and […]. For natural, non-recombinant cell lines, the selective antibiotic was omitted, and additional media formulations can be applied as needed.
The intensity of this emission, but not the wavelength range, is increased when the dye is exposed to Na^+ ions, which it can bind with partial selectivity. Cells expressing Nav1.7 or other sodium channels were loaded with the CoroNa™ Green dye immediately in advance of the fluorescence assay, and then, after agonist stimulation, the mobilization of Na^+ ions was detected as the Na^+ ions flowed from the extracellular fluid into the cytoplasm through the activated sodium channel pores. The dye was stored in the dark as a lyophilized powder, and then an aliquot was dissolved immediately before the cell loading procedure, according to the instructions of the manufacturer to a stock concentration of 10 mM in DMSO. It was then diluted in the assay buffer to a 4× concentrated working solution, so that the final concentration of dye in the cell loading buffer was 5 μM.
These scorpion toxins inhibit the fast inactivation of their cognate target channels. Stock solutions of the agonists were prepared to 40 mM in DMSO (veratridine) and 1 mg/mL in dH2O (scorpion venom), and then diluted to make a 4× or 2× stock (depending on the particular assay) in assay buffer, the final concentration being 100 μM (veratridine) and 10 μg/mL (scorpion venom). Both of the agonists were purchased from Sigma Aldrich, St. Louis, Mo.
Test Compounds: Test compounds were dissolved in DMSO to yield 10 mM stock solutions. […] If a particular test article appeared to be especially potent, then the concentration curve was adjusted, e.g., to 10-fold lower concentrations, in order to perform the dose-response in a more relevant concentration range. Compound dilutions were added during the dye-loading and pre-stimulation step, and then again during the fluorescence assay, early in the kinetic read.
Data Analysis: The data were analyzed according to methods known to those skilled in the art or using the GraphPad® Prism 4.0 Program (available from GraphPad Software, San Diego, Calif.) to determine the IC50 value for the test article. At least one standard reference compound was evaluated during each experiment.
FLIPR® or FLIPR^TETRA® sodium dye assay with KCl and test article pre-incubation: Cells were prepared by plating the recombinant HEK293 cells or other host cells expressing either recombinant or non-recombinant, native, Nav1.7 alpha subunit, alone or in combination with various beta and gamma subunits at a density of ˜40,000 cells/well into a 96-well black, clear-bottom, PDL-coated plate. The assay can be adapted to 384-well or 1,536-well format, if desired, using proportionately less cells and media. […] For counter-screens of other voltage-gated sodium channels, the procedure was very similar, though optimal densities of cells, media and subsequent assay components can be fine-tuned for the particular cell line or isoform.

Chain of human Nav1.7 (Q15858 other isoform, or with tags, fused parts or gaps): as above

Regarding `N#Cc1cc(Oc2ccc(-n3cc(C[C@H](N)CO)c4ccccc43)cc2)ccc1C(F)(F)F` [Compound 47, (S)-5-{4-[3-(2-Amino-3-hydroxypropyl)-1H-indol-1-yl]phenoxy}-2-(trifluoromethyl)benzonitrile], on hNav1.7, the Ki worked out at 160 nM. Besides, the “reversal of mechanical hyperalgesia” value in experiment [1] was 10%-25%. Also, the IC50 on human Nav1.7 stood at 0.213 ± 0.052 µM.

As to `N#Cc1cc(Oc2ccc(-n3cc(C(O)C(N)=O)c4ccccc43)cc2)ccc1C(F)(F)F` (stereo not drawn) [Compound 60, 2-(1-(4-(3-Cyano-4-(trifluoromethyl)phenoxy)phenyl)-1H-indol-3-yl)-2-hydroxyacetamide], at hNav1.7, the inhibition constant Ki was 400 nM. For the same compound, in experiment [1], the “reversal of mechanical hyperalgesia” value is recorded as 10%-25%. Also, the IC50 on human Nav1.7 was 0.224 ± 0.038 µM.
